# Measured values published in patent US10975084B2, “KDM5 inhibitors” (Merck Sharp & Dohme Corp., priority 2016, dated 2021).
# Biological target: KDM5B (Homo sapiens (Human), UniProt Q9UGL1)
# Assay: KDM5B TR-FRET Enzyme Activity Assay
# Format: biochemical
# Conditions: LANCE TR-FRET; 5 nM full-length recombinant KDM5B; ten point titration 100000 nM to 5.08 nM
# How it was run: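 Full-length KDM5B from Sf21 cells (5 nM) was preincubated 30 min with compound in HEPES pH 7.3 buffer with ascorbate and 2 μM Fe(II). Reaction with 500 nM biotinylated H3K4Me3 peptide and 500 nM α-ketoglutarate ran 60 min. Product was detected by TR-FRET (Eu-anti-H3K4Me1-2/streptavidin-Dylight 650, 665/615 ratio); IC50 came from a 4-parameter fit.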
# Chain of KDM5B (Q9UGL1 whole entry): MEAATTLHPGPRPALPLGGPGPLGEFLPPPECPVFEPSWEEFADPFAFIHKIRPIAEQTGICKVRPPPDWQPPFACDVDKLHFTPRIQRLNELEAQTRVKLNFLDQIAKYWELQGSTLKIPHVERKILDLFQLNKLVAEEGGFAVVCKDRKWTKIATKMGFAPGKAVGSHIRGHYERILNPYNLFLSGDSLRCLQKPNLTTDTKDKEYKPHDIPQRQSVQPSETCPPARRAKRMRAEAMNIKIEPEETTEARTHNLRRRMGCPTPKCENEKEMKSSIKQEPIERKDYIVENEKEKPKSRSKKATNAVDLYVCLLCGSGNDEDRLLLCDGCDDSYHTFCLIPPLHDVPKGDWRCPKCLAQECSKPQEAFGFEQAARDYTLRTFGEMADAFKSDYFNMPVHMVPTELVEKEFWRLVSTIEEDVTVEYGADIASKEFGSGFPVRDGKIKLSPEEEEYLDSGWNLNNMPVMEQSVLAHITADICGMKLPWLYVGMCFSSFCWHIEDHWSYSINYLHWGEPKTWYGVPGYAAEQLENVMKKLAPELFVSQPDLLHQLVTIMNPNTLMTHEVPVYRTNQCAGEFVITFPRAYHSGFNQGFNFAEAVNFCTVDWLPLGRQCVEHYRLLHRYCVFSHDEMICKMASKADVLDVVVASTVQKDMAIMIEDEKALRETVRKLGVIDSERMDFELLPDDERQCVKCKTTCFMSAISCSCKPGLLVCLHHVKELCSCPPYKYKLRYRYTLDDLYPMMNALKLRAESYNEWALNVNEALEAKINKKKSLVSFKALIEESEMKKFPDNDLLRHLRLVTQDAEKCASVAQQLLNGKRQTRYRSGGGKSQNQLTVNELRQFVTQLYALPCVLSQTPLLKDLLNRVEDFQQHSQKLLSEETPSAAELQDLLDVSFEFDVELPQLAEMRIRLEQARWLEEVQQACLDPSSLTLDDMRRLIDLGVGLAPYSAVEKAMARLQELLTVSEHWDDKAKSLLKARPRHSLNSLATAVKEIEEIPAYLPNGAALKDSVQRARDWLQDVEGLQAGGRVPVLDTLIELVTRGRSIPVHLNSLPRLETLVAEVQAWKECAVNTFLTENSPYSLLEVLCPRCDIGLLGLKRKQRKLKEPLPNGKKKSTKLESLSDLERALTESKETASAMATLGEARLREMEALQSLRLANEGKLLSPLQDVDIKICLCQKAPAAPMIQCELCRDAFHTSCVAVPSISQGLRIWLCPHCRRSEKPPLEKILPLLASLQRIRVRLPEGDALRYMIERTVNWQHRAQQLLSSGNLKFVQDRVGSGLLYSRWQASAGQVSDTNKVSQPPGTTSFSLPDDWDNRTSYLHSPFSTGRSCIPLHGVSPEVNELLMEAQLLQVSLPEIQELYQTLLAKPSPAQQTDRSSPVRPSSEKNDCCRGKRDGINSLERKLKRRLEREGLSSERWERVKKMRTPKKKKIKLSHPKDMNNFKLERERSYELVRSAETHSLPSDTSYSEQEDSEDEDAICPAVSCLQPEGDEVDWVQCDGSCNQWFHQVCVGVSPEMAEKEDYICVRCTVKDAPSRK
row,IC50,Structure (SMILES)
1,46.3 nM,"CC(C)c1c(-c2cccc(N3CCOCC3)c2)[nH]c2ncnn2c1=O [Example 11-44, 6-(1-methylethyl)-5-(3-morpholin-4-ylphenyl)[1,2,4]triazolo[1,5-a]pyrimidin-7(4H)-one]"
2,17.4 nM,"CCOC(=O)Cc1ccc(-c2[nH]c3ncnn3c(=O)c2C(C)C)cc1 [Example 11-45, ethyl {4-[6-(1-methylethyl)-7-oxo-4,7-dihydro[1,2,4]triazolo[1,5-a]pyrimidin-5-yl]phenyl}acetate]"
3,303 nM,"CC(C)c1c(-c2cccc(Oc3ccccc3)c2)[nH]c2ncnn2c1=O [Example 11-46, 6-(1-methylethyl)-5-(3-phenoxyphenyl)[1,2,4]triazolo[1,5-a]pyrimidin-7(4H)-one]"
4,6.93 nM,"CC(C)c1c(-c2cnn(CCS(C)(=O)=O)c2)[nH]c2ncnn2c1=O [Example 11-47, 6-(1-methylethyl)-5-{1-[2-(methylsulfonyl)ethyl]-1H-pyrazol-4-yl}[1,2,4]triazolo[1,5-a]pyrimidin-7(4H)-one]"
5,16.8 nM,"CC(C)c1c(-c2ccc(CN3CCCCC3)cc2)[nH]c2ncnn2c1=O [Example 11-48, 6-(1-methylethyl)-5-[4-(piperidin-1-ylmethyl)phenyl][1,2,4]triazolo[1,5-a]pyrimidin-7(4H)-one]"
6,33.2 nM,"CC(C)c1c(-c2cccc(CN3CCCCC3)c2)[nH]c2ncnn2c1=O [Example 11-49, 6-(1-methylethyl)-5-[3-(piperidin-1-ylmethyl)phenyl][1,2,4]triazolo[1,5-a]pyrimidin-7(4H)-one]"
7,20.1 nM,"CC(C)c1c(-c2ccc(C(O)C(F)(F)F)cc2)[nH]c2ncnn2c1=O (stereo not shown) [Example 11-50, 6-(1-methylethyl)-5-[4-(2,2,2-trifluoro-1-hydroxyethyl)-phenyl][1,2,4]triazolo[1,5-a]pyrimidin-7(4H)-one]"
8,9.66 nM,"CC(C)c1c(-c2cnn(-c3cccc(Cl)c3)c2)[nH]c2ncnn2c1=O [Example 11-51, 5-[1-(3-chlorophenyl)-1H-pyrazol-4-yl]-6-(1-methylethyl)[1,2,4]triazolo[1,5-a]pyrimidin-7(4H)-one]"
9,6.96 nM,"CC(C)c1c(-c2cnn(CCN3CCOCC3)c2)[nH]c2ncnn2c1=O [Example 11-52, 6-(1-methylethyl)-5-[1-(2-morpholin-4-ylethyl)-1H-pyrazol-4-yl][1,2,4]triazolo[1,5-a]pyrimidin-7(4H)-one]"
10,75.1 nM,"CC(C)c1c(-c2cnn3c2CCCC3)[nH]c2ncnn2c1=O [Example 11-53, 6-(1-methylethyl)-5-(4,5,6,7-tetrahydropyrazolo[1,5-a]pyridin-3-yl)[1,2,4]triazolo[1,5-a]pyrimidin-7(4H)-one]"
11,31.4 nM,"CC(C)c1c(-c2cccc(C(O)C(F)(F)F)c2)[nH]c2ncnn2c1=O (stereo not shown) [Example 11-54, 6-(1-methylethyl)-5-[3-(2,2,2-trifluoro-1-hydroxyethyl)phenyl][1,2,4]triazolo[1,5-a]pyrimidin-7(4H)-one]"
12,9.45 nM,"CC(C)c1c(/C=C/c2ccccc2)[nH]c2ncnn2c1=O [Example 11-55, 6-(1-methylethyl)-5-[(E)-2-phenylethenyl][1,2,4]triazolo[1,5-a]pyrimidin-7(4H)-one]"
13,110 nM,CC(C)c1c(C2=CCC(C#N)CC2)[nH]c2ncnn2c1=O (stereo not shown) [Example 11-56]
14,55.4 nM,"COc1cccc(-c2[nH]c3ncnn3c(=O)c2C(C)C)c1 [Example 11-57, 5-(3-methoxyphenyl)-6-(1-methylethyl) [1,2,4]triazolo[1,5-a]pyrimidin-7(4H)-one]"
15,37.3 nM,"COc1ccc(-c2[nH]c3ncnn3c(=O)c2C(C)C)cc1 [Example 11-58, 5-(4-methoxyphenyl)-6-(1-methylethyl) [1,2,4]triazolo[1,5-a]pyrimidin-7(4H)-one]"
16,26.5 nM,"CC(C)c1c(-c2cccc(CO)c2)[nH]c2ncnn2c1=O [Example 11-59, 5-[3-(hydroxymethyl)phenyl]-6-(1-methylethyl)[1,2,4]triazolo[1,5-a]pyrimidin-7(4H)-one]"
17,13.5 nM,"CC(C)c1c(-c2ccc(CO)cc2)[nH]c2ncnn2c1=O [Example 11-60, 5-[4-(hydroxymethyl)phenyl]-6-(1-methylethyl)[1,2,4]triazolo[1,5-a]pyrimidin-7(4H)-one]"
18,2170 nM,"Cc1nn(C)c(C)c1-c1[nH]c2ncnn2c(=O)c1C(C)C [Example 11-61, 6-(1-methylethyl)-5-(1,3,5-trimethyl-1H-pyrazol-4-yl)[1,2,4]triazolo[1,5-a]pyrimidin-7(4H)-one]"
19,1030 nM,"CC(C)c1c(C2=CCC(C)(C)CC2)[nH]c2ncnn2c1=O [Example 11-62, 5-(4,4-dimethylcyclohex-1-en-1-yl)-6-(1-methylethyl)[1,2,4]triazolo[1,5-a]pyrimidin-7(4H)-one]"
20,71.5 nM,"CC(C)c1c(-c2ccc(Cl)cc2)[nH]c2ncnn2c1=O [Example 11-63, 5-(4-chlorophenyl)-6-(1-methylethyl)[1,2,4]triazolo[1,5-a]pyrimidin-7(4H)-one]"

row,IC50,Structure (SMILES)
1,91.8 nM,"CC(C)c1c(-c2cccc(Cl)c2)[nH]c2ncnn2c1=O [Example 11-64, 5-(3-chlorophenyl)-6-(1-methylethyl)[1,2,4]triazolo[1,5-a]pyrimidin-7(4H)-one]"
2,3360 nM,"CC(C)c1c(-c2ccccc2Cl)[nH]c2ncnn2c1=O [Example 11-65, 5-(2-chlorophenyl)-6-(1-methylethyl)[1,2,4]triazolo[1,5-a]pyrimidin-7(4H)-one]"
3,8.93 nM,"CC(C)c1c(-c2cccc(CC#N)c2)[nH]c2ncnn2c1=O [Example 11-66, {3-[6-(1-methylethyl)-7-oxo-4,7-dihydro[1,2,4]triazolo[1,5-a]pyrimidin-5-yl]phenyl}acetonitrile]"
4,18.2 nM,"CC(C)c1c(-c2ccc(CC#N)cc2)[nH]c2ncnn2c1=O [Example 11-67, {4-[6-(1-methylethyl)-7-oxo-4,7-dihydro[1,2,4]triazolo[1,5-a]pyrimidin-5-yl]phenyl}acetonitrile]"
5,20 nM,"CC(C)c1c(-c2cnc3[nH]ccc3c2)[nH]c2ncnn2c1=O [Example 11-68, 6-(1-methylethyl)-5-(1H-pyrrolo[2,3-b]pyridin-5-yl)[1,2,4]triazolo[1,5-a]pyrimidin-7(4H)-one]"
6,25.8 nM,"CC(C)c1c(-c2ccc3nccn3c2)[nH]c2ncnn2c1=O [Example 11-69, 5-imidazo[1,2-a]pyridin-6-yl-6-(1-methylethyl)[1,2,4]triazolo[1,5-a]pyrimidin-7(4H)-one]"
7,13.5 nM,"CC(C)c1c(-c2ccc3nc[nH]c3c2)[nH]c2ncnn2c1=O [Example 11-70, 5-(1H-benzimidazol-6-yl)-6-(1-methylethyl)[1,2,4]triazolo[1,5-a]pyrimidin-7(4H)-one]"
8,208 nM,"CC(C)c1c(-c2cccc3[nH]ncc23)[nH]c2ncnn2c1=O [Example 11-71, 5-(1H-indazol-4-yl)-6-(1-methylethyl)[1,2,4]triazolo[1,5-a]pyrimidin-7(4H)-one]"
9,20.1 nM,"CC(C)c1c(-c2cnn3ncccc23)[nH]c2ncnn2c1=O [Example 11-72, 6-(1-methylethyl)-5-pyrazolo[1,5-b]pyridazin-3-yl[1,2,4]triazolo[1,5-a]pyrimidin-7(4H)-one]"
10,27.2 nM,"CC(C)c1c(-c2ccc3cccnc3c2)[nH]c2ncnn2c1=O [Example 11-73, 6-(1-methylethyl)-5-quinolin-7-yl[1,2,4]triazolo[1,5-a]pyrimidin-7(4H)-one]"
11,14.7 nM,"CC(C)c1c(-c2ccc3ncccc3c2)[nH]c2ncnn2c1=O [Example 11-74, 6-(1-methylethyl)-5-quinolin-6-yl[1,2,4]triazolo[1,5-a]pyrimidin-7(4H)-one]"
12,904 nM,"CC(C)c1c(-c2ccnc3ccccc23)[nH]c2ncnn2c1=O [Example 11-75, 6-(1-methylethyl)-5-quinolin-4-yl[1,2,4]triazolo[1,5-a]pyrimidin-7(4H)-one]"
13,23.8 nM,"CC(C)c1c(-c2cnc3ccccc3c2)[nH]c2ncnn2c1=O [Example 11-76, 6-(1-methylethyl)-5-quinolin-3-yl[1,2,4]triazolo[1,5-a]pyrimidin-7(4H)-one]"
14,1260 nM,"CC(C)c1c(-c2cc3ccccc3n2C)[nH]c2ncnn2c1=O [Example 11-77, 6-(1-methylethyl)-5-(1-methyl-1H-indol-2-yl)[1,2,4]triazolo[1,5-a]pyrimidin-7(4H)-one]"
15,10.4 nM,"CC(C)c1c(-c2ccc3c(cnn3C)c2)[nH]c2ncnn2c1=O [Example 11-78, 6-(1-methylethyl)-5-(1-methyl-1H-indazol-5-yl)[1,2,4]triazolo[1,5-a]pyrimidin-7(4H)-one]"
16,19.4 nM,"COC(=O)c1ccc(-c2[nH]c3ncnn3c(=O)c2C(C)C)cc1 [Example 11-79, methyl 4-[6-(1-methylethyl)-7-oxo-4,7-dihydro[1,2,4]triazolo[1,5-a]pyrimidin-5-yl]benzoate]"
17,34.2 nM,"COC(=O)c1cccc(-c2[nH]c3ncnn3c(=O)c2C(C)C)c1 [Example 11-80, methyl 3-[6-(1-methylethyl)-7-oxo-4,7-dihydro[1,2,4]triazolo[1,5-a]pyrimidin-5-yl]benzoate]"
18,306 nM,"CC(C)c1c(C2=CC(C)(C)OC(C)(C)C2)[nH]c2ncnn2c1=O [Example 11-81, 6-(1-methylethyl)-5-(2,2,6,6-tetramethyl-3,6-dihydro-2H-pyran-4-yl)[1,2,4]triazolo[1,5-a]pyrimidin-7(4H)-one]"
19,8.78 nM,"CC(C)c1c(-c2ccc(-n3cccn3)cc2)[nH]c2ncnn2c1=O [Example 11-82, 6-(1-methylethyl)-5-[4-(1H-pyrazol-1-yl)phenyl][1,2,4]triazolo[1,5-a]pyrimidin-7(4H)-one]"
20,21.2 nM,"CC(C)c1c(-c2cccc(-n3cccn3)c2)[nH]c2ncnn2c1=O [Example 11-83, 6-(1-methylethyl)-5-[3-(1H-pyrazol-1-yl)phenyl][1,2,4]triazolo[1,5-a]pyrimidin-7(4H)-one]"
